Measured values from patent publication US20220054438A1, “KCHIP2 MODULATOR COMPOUNDS AND THEIR USE FOR THE TREATMENT OF CARDIOVASCULAR DISEASES” (CONSEJO SUPERIOR DE INVESTIGACIONES CIENTÍFICAS (CSIC), priority 2018, published 2022).
Entries after “also recorded” stand apart in the source; their conditions may differ.

How the values were obtained:
KV4.3+KChIP2 channels = target: T1, KV4.3+KChIP2 channels (Homo sapiens, UniProt Q9NS61); experiment: Whole-cell patch-clamp of KV4.3+KChIP2 currents in transiently transfected CHO cells; type: cell-based
T1 construct: expressed in transfected cells; host or cells: CHO cells (transient transfection)
T1 sequence (Q9NS61 1-270): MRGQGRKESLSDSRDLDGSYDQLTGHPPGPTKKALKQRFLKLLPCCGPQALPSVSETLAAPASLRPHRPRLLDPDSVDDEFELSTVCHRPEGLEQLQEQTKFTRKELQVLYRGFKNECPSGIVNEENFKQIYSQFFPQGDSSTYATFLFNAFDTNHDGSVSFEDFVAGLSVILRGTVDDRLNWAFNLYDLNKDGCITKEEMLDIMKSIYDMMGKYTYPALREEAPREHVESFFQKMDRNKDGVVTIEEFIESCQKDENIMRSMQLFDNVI
T1 sequence (Q9UK17 1-655 partner): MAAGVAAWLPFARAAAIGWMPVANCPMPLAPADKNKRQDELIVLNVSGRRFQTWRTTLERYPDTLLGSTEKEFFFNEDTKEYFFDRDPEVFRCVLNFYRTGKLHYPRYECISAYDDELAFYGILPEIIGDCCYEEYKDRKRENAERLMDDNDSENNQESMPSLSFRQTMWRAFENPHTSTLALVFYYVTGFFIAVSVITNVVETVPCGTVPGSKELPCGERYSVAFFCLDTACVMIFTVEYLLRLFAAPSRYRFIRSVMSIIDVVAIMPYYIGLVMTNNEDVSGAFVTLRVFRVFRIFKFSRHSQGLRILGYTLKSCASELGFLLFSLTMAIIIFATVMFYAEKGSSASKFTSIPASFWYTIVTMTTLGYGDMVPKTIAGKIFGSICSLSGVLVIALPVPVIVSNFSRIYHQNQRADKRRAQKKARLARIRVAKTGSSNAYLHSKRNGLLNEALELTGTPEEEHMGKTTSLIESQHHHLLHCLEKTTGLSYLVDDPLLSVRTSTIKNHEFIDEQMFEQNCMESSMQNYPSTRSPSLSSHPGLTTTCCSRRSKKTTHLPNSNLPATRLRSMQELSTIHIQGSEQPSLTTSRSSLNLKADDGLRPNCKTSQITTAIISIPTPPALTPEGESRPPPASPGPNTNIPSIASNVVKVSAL
Excerpt: (§1) Example 2. Tests of the effects of the compounds on the KV4.3/KChIP2 and KV4.3/KChIP2/DPP6 currents generated after the activation of KV4.3/KChIP2 and KV4.3/KChIP2/DPP6 channels expressed in CHO cells.
(§2) The compounds synthesized according to this invention have been evaluated in vitro in voltage clamp tests in CHO cells transiently transfected with cDNA encoding KV4.3 alone or KV4.3 in the presence of KChIP2 (KV4.3+KChIP2) and DPP6 (KV4.3+KChIP2+DPP6) using the whole-cell configuration of the patch-clamp technique. Some of the compounds activate the current generated by the activation of KV4.3+KChIP2 channels.

[1] = target: T2, KV4.3+KChIP2+DPP6 channels (Homo sapiens, UniProt Q9NS61); experiment: Whole-cell patch-clamp of KV4.3+KChIP2+DPP6 currents in transiently transfected CHO cells; type: cell-based
T2 construct: expressed in transfected cells; host or cells: CHO cells (transient transfection)
T2 sequence (P42658 whole entry partner, one chain of several): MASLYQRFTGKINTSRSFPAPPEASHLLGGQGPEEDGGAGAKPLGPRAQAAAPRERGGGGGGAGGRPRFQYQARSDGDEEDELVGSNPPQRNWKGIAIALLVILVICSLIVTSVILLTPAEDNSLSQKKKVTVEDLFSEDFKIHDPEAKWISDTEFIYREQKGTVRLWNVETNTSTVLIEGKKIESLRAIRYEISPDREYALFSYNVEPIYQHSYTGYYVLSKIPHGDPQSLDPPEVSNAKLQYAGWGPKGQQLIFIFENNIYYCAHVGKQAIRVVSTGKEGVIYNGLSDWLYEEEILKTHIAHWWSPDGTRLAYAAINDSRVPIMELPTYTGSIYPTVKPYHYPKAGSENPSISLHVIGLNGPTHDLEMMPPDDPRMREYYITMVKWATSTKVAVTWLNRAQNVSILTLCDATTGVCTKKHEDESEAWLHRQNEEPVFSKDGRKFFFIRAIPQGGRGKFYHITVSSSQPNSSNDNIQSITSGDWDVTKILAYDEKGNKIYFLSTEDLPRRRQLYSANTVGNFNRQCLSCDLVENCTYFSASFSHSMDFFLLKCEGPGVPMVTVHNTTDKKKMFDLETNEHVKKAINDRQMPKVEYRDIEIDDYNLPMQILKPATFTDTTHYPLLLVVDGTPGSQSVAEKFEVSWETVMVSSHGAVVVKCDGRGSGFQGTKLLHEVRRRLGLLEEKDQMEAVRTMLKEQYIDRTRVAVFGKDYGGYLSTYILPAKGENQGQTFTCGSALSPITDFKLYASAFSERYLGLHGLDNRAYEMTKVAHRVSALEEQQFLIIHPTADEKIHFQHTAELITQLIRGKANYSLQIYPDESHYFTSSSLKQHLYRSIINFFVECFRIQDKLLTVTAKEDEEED
Excerpt: as §1, §2

[2] = test system: K+ current in ventricular cardiomyocytes; experiment: Perforated patch-clamp of K+ current in mouse ventricular cardiomyocytes; type: cell-based, C57BL/6J mice; details: 3 μM perfused for 3-4 minutes, +60 mV
Excerpt: Example 3. Effects of the Compounds on the K^+ Current Recorded in Mouse Ventricular Cardiomyocytes
The cardiomyocytes were obtained after enzyme dissociation with collagenase.

O=C(Cc1cccc(Oc2ccccc2)c1)Nc1cc2ccccc2cc1C(=O)O [Compound 22bis, 3-[2-(3-phenoxyphenyl)acetylamino]-2-naphthoic acid]
charge measured as the area under the current record (KV4.3+KChIP2 channels; 3 μM, CHO cells, depolarizing pulses at +60 mV): increases the charge; also recorded: produced an increase in the charge
maximum peak of the current (KV4.3+KChIP2 channels; 3 μM, FIG. 1A, CHO cells): lowers the maximum peak
charge-voltage relationship (Q-V) (KV4.3+KChIP2 channels; 3 μM, FIG. 3): increase in the charge of the KV4.3/KChIP2 and KV4.3/KChIP2/DPP6 current which turned out to be significant at potentials positive than 0 mV
decrease in the peak versus decrease in the charge, concentration dependence (KV4.3+KChIP2 channels; all concentrations tested except 0.01 μM, FIG. 2, +60 mV): decrease in the peak that was significantly greater than that of the charge
current activating effect ([1]; 3 μM, FIG. 1B, compared with KV4.3+KChIP2): more pronounced in the presence of the DPP6 subunit
charge-voltage relationship (Q-V) ([1]; 3 μM, FIG. 3): increase in the charge of the KV4.3/KChIP2 and KV4.3/KChIP2/DPP6 current which turned out to be significant at potentials positive than 0 mV; also recorded: greater than in KV4.3/KChIP2 channels
charge, concentration dependence ([1]; FIG. 2B, +60 mV, compared with KV4.3/KChIP2): increase in the charge more pronounced
decay (inactivation) time constant of the K+ current [2]: without modifying the decay time constant
maximum peak K+ current [2]: significant increase in the maximum peak current
